This is an account of results in BindingDB's records for doi:10.7270/Q2GH9GBT (Nmmlsc, 2008).

Each structure is given as a SMILES string.

The target in one test is T1, Bcl-2-like protein 10 [11-204] (Homo sapiens, UniProt Q9HD36).
T1 construct: 11-204
T1 sequence (Q9HD36 whole entry): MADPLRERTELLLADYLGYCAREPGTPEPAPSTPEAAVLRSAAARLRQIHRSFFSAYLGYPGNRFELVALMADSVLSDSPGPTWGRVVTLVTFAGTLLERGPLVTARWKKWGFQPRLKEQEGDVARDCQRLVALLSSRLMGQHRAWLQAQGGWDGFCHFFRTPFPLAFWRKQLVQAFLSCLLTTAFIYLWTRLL
In words: regulators of Bim-Bcl-B binding, dose response, biochemical, multiplexed, bead-based flow cytometry, human (AID 1327).
Settings: not given
(In general: In flow cytometry, cells or beads pass a laser one at a time.)
In the case of `OCCN1CCN(CCCc2c3c(cc4c2CCC4)CCC3)CC1` [MLS000698424], the concentration for a half-maximal effect (EC50) is 15.5 µM.
On the same count and under the same terms, in the case of `COc1cccc2c(SCC(=O)NN=Cc3ccc(O)cc3O)cc(C)nc12` [N'-[(E)-(2-hydroxy-4-oxo-1-cyclohexa-2,5-dienylidene)methyl]-2-[(8-methoxy-2-methyl-4-quinolinyl)thio]acetohydrazide] it was 9.13 µM; in that of `COc1cc(C=NNC(=O)CN(Cc2ccco2)S(=O)(=O)c2ccccc2)ccc1O` [N-(2-furanylmethyl)-N-[2-[[(E)-(3-methoxy-4-oxo-1-cyclohexa-2,5-dienylidene)methyl]hydrazo]-2-oxoethyl]benzenesulfonamide], 7.81 µM.
Consider `COc1cccc(CN=Nc2nn3cnnc3c3ccccc23)c1` [N-[1-(3-Methoxy-phenyl)-meth-(E)-ylidene]-N'-[1,2,4]triazolo[3,4-a]phthalazin-6-yl-hydrazine], for which the EC50 came out at 0.98 µM. This EC50 lies about 8-fold lower than the previous one.
On to `Clc1ccc2c(N=NCc3ccc(Br)cc3)ccnc2c1` [N-[(4-bromophenyl)methylideneamino]-7-chloranyl-quinolin-4-amine], for which the EC50 was found to be 20.9 µM.
In turn, `Cc1cccc(OCC(=O)NCC(=O)NN=Cc2cc(Br)ccc2OCc2ccccc2)c1` [N-[(5-bromanyl-2-phenylmethoxy-phenyl)methylideneamino]-2-[2-(3-methylphenoxy)ethanoylamino]ethanamide] showed an EC50 of 5.53 µM.
The same measure, in the same setting: for `Cc1ccc(C=NNC(=O)CSc2nnc(-c3ccc(Cl)cc3)n2-c2ccccc2)o1` [SMR000218122] the value was 9.23 µM; for `Clc1nc2ccccc2cc1CN=Nc1nc2ccccc2[nH]1` [SMR000221568], 35.7 µM.

Still in this test, the particulars now being: inactive by the depositor's call.
Compound `COc1ccc(C)cc1-n1c(=O)c2ccccc2c2ccccc2c1=O` [MLS000682999] had an EC50 of 15.6 µM.
For `Cc1ccnc(SCc2cc(=O)c(OC(=O)c3ccc(Cl)c([N+](=O)[O-])c3)co2)n1` [MLS000696790], the EC50 was 6.62 µM.
Regarding `CCOC(=O)c1c(O)nc2ccc(Cl)c3c2c1-c1ccccc1C3=O` [MLS000704595], the EC50 amounted to 1.32 µM.
For the compound `Cc1ccc(OCc2cn3cccnc3n2)cc1` [MLS000723172], the EC50 turned out to be 30.6 µM.
The same measure, in the same setting: in the case of `COc1ccccc1-n1c(-c2ccccc2)c[nH]c1=S` [MLS001007615] it was 32.1 µM; in that of `c1ccc(Nc2cccc(Nc3ccccc3)n2)cc1` [N,N'-diphenyl-2,6-pyridinediamine], 7.82 µM.
`CC(=O)c1ccc(NC(=O)c2ccc3nc(-c4ccco4)c(-c4ccco4)nc3c2)cc1` [N-(4-acetylphenyl)-2,3-di-2-furyl-6-quinoxalinecarboxamide]: the 50% effective concentration (EC50) came out at 33.7 µM. Compared with the last compound, the EC50 is about 4.3-fold higher.
On to `COc1ccc(CCNC(=O)c2ccc3nc(-c4ccco4)c(-c4ccco4)nc3c2)cc1OC` [N-[2-(3,4-dimethoxyphenyl)ethyl]-2,3-di-2-furylquinoxaline-6-carboxamide], for which the EC50 amounted to 52.4 µM. This EC50 is about 1.6-fold higher than that of the compound before.
The compound `Cc1ccc(C=NN(C)C2=NS(=O)(=O)c3ccccc32)o1` [N-methyl-N-[(5-methyl-2-furanyl)methylideneamino]-1,1-dioxo-1,2-benzothiazol-3-amine] gave a concentration for a half-maximal effect (EC50) of 7.38 µM.
`CSc1nnc2c3cc(C)ccc3n(Cc3ccccc3)c2n1` [SMR000046397] had an EC50 of 30.7 µM.
Take `c1ccc(-c2nc(N3CCCCCC3)c3ccccc3n2)nc1` [SMR000046752]: the EC50 is 16.7 µM. This EC50 lies about 1.8-fold lower than the previous one.
The compound `O=C(Nc1ccc2nc(-c3ccco3)c(-c3ccco3)nc2c1)NC1CC1` [SMR000118524] gave an EC50 of 45.1 µM.
On the same count and under the same terms, for `C#CCn1cc(C=C2C(=O)c3ccccc3C2=O)c2ccccc21` [SMR000196125] the value was 17.8 µM.
`CN(N=Cc1cccnc1)C1=NS(=O)(=O)c2ccccc21` [SMR000207578] showed an EC50 of 20 µM.
`COc1ccc(OC)c(-n2c(=O)c3ccccc3c3ccccc3c2=O)c1` [SMR000236434] registered an EC50 of 16.4 µM.
Regarding `Nc1c(C(=O)NCC2CCCO2)sc2nc3c(c(-c4ccco4)c12)CC/C3=C\c1ccco1` (centres undefined) [SMR000259502], the concentration for a half-maximal effect (EC50) stood at 13.7 µM.
Compound `Nc1c(C(=O)NC2CC2)sc2nc3c(c(-c4ccco4)c12)CC/C3=C/c1ccco1` [SMR000259554] had an EC50 of 10.4 µM. The EC50 values of the last two compounds are within 1.5-fold of each other.
`Cc1nnc2ccc(-c3cccc(NC(=O)c4ccco4)c3)nn12` [SMR000324305]: the EC50 was found to be 3.53 µM.
The same measure, in the same setting: in the case of `O=C(Nc1cccc(Cl)c1)Nc1ccnc(-c2cccnc2)n1` [SMR000337179] it was 1.11 µM.
Same read-out and setting: in the case of `CCOC(=O)c1nc(Nc2ccc(C(=O)OC)cc2)c2ccccc2n1` [ethyl 4-(4-methoxycarbonylanilino)quinazoline-2-carboxylate] it was 11.2 µM; in that of `CN(N=Cc1ccncc1)C1=NS(=O)(=O)c2ccccc21` [isonicotinaldehyde (1,1-dioxido-1,2-benzisothiazol-3-yl)(methyl)hydrazone], 1.82 µM.

The EC50 is the midpoint of the concentration-response curve.
